Results reported in patent EP4342905B1, “1,N6-ETHENOADENOSINE DERIVATIVES FOR CANCER TREATMENT” (PHILIPPS-UNIVERSITÄT MARBURG, priority 2022, dated 2024).
Where a name gives a salt, the structure may show the parent alone.

Columns and labels:
[1] = logPOW determination, water/1-octanol distribution with UV/VIS readout; assay type: physicochemical; settings: 1 h stirring, room temperature (23 °C), ratio of maximal UV absorbances; for logP at 1 h: read-out: logPOW (measured)
Procedure: All logPOW values reported herein are determined as follows: 2 mg of the compound to be measured are distributed in a 250 ml beaker between a two-phase mixture of water (50 ml) and 1-octanol (50 ml) and stirred for 1 h on a magnetic stirrer at room temperature (23 °C). After separation of the layers, 3 ml of each phase are removed and transferred into a 3.5 ml quartz cuvette (10 x 10 mm, 3500 µl; Hellma, Darmstadt, Germany) and measured on a UV/VIS spectrometer (Cary 50, Varian, Darmstadt, Germany). From the ratio of maximal absorbances in both layers (λmax) the corresponding log10POW values are determined.

Panc-1 cells = test: CellTiter-Glo Luminescent Cell Viability Assay, Panc-1 as PDAC model; assay type: cell-based, human; settings: for IC50: Panc-1 cells, 72 h compound incubation, mean ± SD of at least three independent biological repeats; for activity against human Panc-1 pancreatic carcinoma cells compared to gemcitabine: comparison with gemcitabine
Procedure: The biological antitumor-activity of adenosine derivatives according to Formula I towards pancreatic ductal adenocarcinoma (PDAC) was evaluated by utilizing the established cell line Panc-1 as a PDAC model by applying the CellTiter-Glo® Luminescent Cell Viability Assay (Promega) after 72 h of compound incubation. Gemcitabine (100 µM) was used as a positive control. To analyze the cytotoxic efficacy in Panc-1 cells, dose-response curves were generated for each compound, starting from a concentration of 100 µM with serial dilution of 1:3. IC50 values are shown as arithmetic means of at least three independent biological repeats in following Table 1. Table 1: IC50-Values for the inhibition of PADC by adenosine and 1,N6-ethenoadenosine derivatives (with the respective standard deviations SD)

logPOW (measured) [1] | logP at 1 h [1] | IC50 (Panc-1 cells; Homo sapiens) | SMILES | activity against human Panc-1 pancreatic carcinoma cells compared to gemcitabine (Panc-1 cells) | IC50 (Panc-1 cells)
2.40 | 2.4 | 17.1 ± 3.14 µM | CCCCCCCC1(CCCCCCC)O[C@@H]2[C@H](O1)[C@@H](CO)O[C@H]2n1cnc2c1ncn1ccnc21.Cl [Compound 4a, ((3aR,4R,6R,6aR)-6-(3H-imidazo[2,1-i]purin-3-yl)-2,2-diheptyltetrahydrofuro[3,4-d][1,3]dioxol-4-yl)methanol Hydrochloride] |  | 
2.57 | 2.57 | 16.2 ± 1.35 µM | CCCCCCCCC1(CCCCCCCC)O[C@@H]2[C@H](O1)[C@@H](CO)O[C@H]2n1cnc2c1ncn1ccnc21 [Compound 4b, ((3aR,4R,6R,6aR)-6-(3H-imidazo[2,1-i]purin-3-yl)-2,2-dioctyitetrahydrofuro[3,4-d][1,3]dioxol-4-yl)methanol Hydrochloride] | more active | 

Further lines, the molecule ahead of its results:

SMILES | logPOW (measured) [1] | logP at 1 h [1] | IC50 (Panc-1 cells; Homo sapiens) | activity against human Panc-1 pancreatic carcinoma cells compared to gemcitabine (Panc-1 cells) | IC50 (Panc-1 cells)
CCCCCCCC1(CCCCCCC)O[C@@H]2[C@H](O1)[C@@H](CO)O[C@H]2n1cnc2c(N)ncnc21 [Compound 2a, ((3aR,4R,6R,6aR)-6-(6-amino-9H-purin-9-yl)-2,2-diheptyltetrahydrofuro[3,4-d][1,3]dioxol-4-yl)methanol] | 2.82 | 2.82 | 14.58 ± 0.14 µM | more active | 
CCCCCCCCC1(CCCCCCCC)O[C@@H]2[C@H](O1)[C@@H](CO)O[C@H]2n1cnc2c(N)ncnc21 [Compound 2b, ((3aR,4R,6R,6aR)-6-(6-amino-9H-purin-9-yl)-2,2-dioctyltetrahydrofuro[3,4-d][1,3]dioxol-4-yl)methanol] | 3.86 | 3.86 |  |  | 
CCCCCCCCCCCCCC1(C)O[C@@H]2[C@H](O1)[C@@H](CO)O[C@H]2n1cnc2c(N)ncnc21 (stereo partly drawn) [Compound 2c, ((2R/2S,3aR,4R,6R,6aR)-6-(6-amino-9H-purin-9-yl)-2-methyl-2-tridecyltetrahydrofuro[3,4-d][1,3]dioxol-4-yl)methanol] | 2.83 |  |  |  | 
CCCCCCCCCCCCCC1(CC)O[C@@H]2[C@H](O1)[C@@H](CO)O[C@H]2n1cnc2c(N)ncnc21 (stereo partly drawn) [Compound 2d, ((2R/2S,3aR,4R,6R,6aR)-6-(6-amino-9H-purin-9-yl)-2-ethyl-2-tridecyltetrahydrofuro[3,4-d][1,3]dioxol-4-yl)methanol] | 3.60 |  |  | more active | 14.6 ± 0.69 µM
CCCCCCCCCCCCCC1(C)O[C@@H]2[C@H](O1)[C@@H](CO)O[C@H]2n1cnc2c(N)ncnc21.Cl (stereo partly drawn) [Compound 4c, ((2R/2S,3aR,4R,6R,6aR)-6-(6-amino-9H-purin-9-yl)-2-methyl-2-tridecyltetrahydrofuro[3,4-d][1,3]dioxol-4-yl)methanol Hydrochloride] | 2.75 |  |  | more active | 30.6 ± 2.53 µM
CCCCCCCCCCCCCC1(CC)O[C@@H]2[C@H](O1)[C@@H](CO)O[C@H]2n1cnc2c1ncn1ccnc21.Cl (stereo partly drawn) [Compound 4d, ((2R/2S,3aR,4R,6R,6aR)-6-(3H-imidazo[2,1-i]purin-3-yl)-2-ethyl-2-tridecyltetrahydrofuro[3,4-d][1,3]dioxol-4-yl)methanol Hydrochloride] | 2.29 |  |  |  | 16 ± 4.31 µM
Cl.OC[C@H]1O[C@@H](n2cnc3c2ncn2ccnc32)[C@@H]2OC3(CCCCCCCCCCCCCC3)O[C@@H]21 [Compound 5, ((3a'R,4'R,6'R,6a'R)-4'-(3H-imidazo[2,1-i]purin-3-yl)tetrahydrospiro[cyclopentadecane-1,2'-furo[3,4-d][1,3]dioxol]-6'-yl)methanol Hydrochloride] | 1.67 | 1.67 | 23.1 ± 3.6 µM |  | 
